In patent US11541029B2, “High penetration compositions and their applications” (Techfields Pharma Co., Ltd., priority 2008, dated 2023):
Each block holds one molecule with its values, some of them ahead of it.

Legend:
[1] = Solubility in water; type: physicochemical
Method: 30 g (0.1 mol) of sodium 9-cis-retinoate was dissolved in 100 ml of acetonitrile. 26.1 g (0.1 mol) of 2-Bromo-N,N-diethylethylamine.HBr was added into the reaction mixture. The mixture was stirred for overnight at RT. The solvents were evaporated off. 200 ml of ethanol was added into the residue. The solid was removed by filtration. The solution was evaporated to dryness. 100 ml of ethyl acetate was added into the reaction mixture. Hexane (100 ml) was added. The solid product was collected by filtration. After drying, it yielded 36 g of the desired product (75%).

[2] = Distribution in organs of rabbits after transdermal HPC of ibuprofen; type: in vivo; settings: for distribution in brain / distribution in cartilage pads / distribution in heart / distribution in prostate gland / distribution in testis: 2 hr after 0.3 mol/kg HPC of ibuprofen (10% aqueous) on shaved back; for distribution in Myelin: 2 hr after HPC of ibuprofen (10% aqueous) on shaved back
Source text: (§1) A HPC changed quickly to its parent drug in vivo, so the concentration was the concentration of its parent drug or related compound.

[3] = Amount of ibuprofen in rat plasma and brain, 0.3 mmol/kg
Method: The plasma or brain tissue (the whole brain was washed with pH 7.4 buffer for 3 times) was homogenized immediately in 3-5 ml of methanol, using a tissue tearor at 30,000 rpm (about 2 min.).

[4] = Amount of ibuprofen in Beagle dogs synovial fluid, 0.3 mmol/kg; type: in vivo
[5] = Amounts of ibuprofen in Beagle dogs cartilage tissue; type: in vivo; settings: 18 hours after administration
[6] = system: rats given sterilized E. coli suspension as a pyrogen; assay: Antipyretic activity of ibuprofen and its HPC (Study A); type: in vivo
[7] = Distribution in organs of rats after transdermal HPC of ibuprofen; settings: 2 hr after 0.3 mmol/kg HPC of ibuprofen (10% aqueous) on shaved back
Source text: as §1

[8] = system: spontaneously hypertensive rats (SLAC/SHR); assay: Anti-hypertensive activity in spontaneously hypertensive rats; type: in vivo; settings: 50 mg/kg (10% in water) on back skin once per day
Method: 20 spontaneously hypertensive rats (SLAC/SHR, 19 weeks old, 300-350 g) were divided into 2 groups randomly. In group A, pure water (0.5 ml) was applied to the rats' back skin (˜5 cm^2, fur was cut off) once per day for 6 weeks. In groups B, 50 mg/kg of diethylaminoethyl acetylsalicylate citric acid salt (10% in water) was applied to the rats' back skin (˜5 cm^2, fur was cut off) once per day.

[9] = system: Smyth chickens (animal models of vitiligo); assay: Anti-vitiligo activity in Smyth chickens; type: in vivo; settings: 50 mg/kg (5% in pure water) on discoloured lesions once per day for 10 weeks
Method: 20 Smyth chickens (animal models of vitiligo) were allocated to 2 groups. Group A (n=10) chickens received 1 ml of pure water on discoloured lesions once per day for 10 weeks. Group B (n=10) Smyth chicken received 50 mg/kg of diethylaminoethyl acetylsalicylate citric acid (5% in pure water) on discoloured lesions once per day for 10 weeks. In the untreated control group A, the lesions were worse and feather loss continued. In the diethylaminoethyl acetylsalicylate citric acid treated group B, the discoloured lesions disappeared and feathers regrew with 3-6 weeks.

[10] = system: mice (aging); assay: Lifespan of mice; type: in vivo
Method: 60 mice (10 weeks old, 30.3±3.5 g) were divided into groups A and B. In group A (n=30), 0.05 ml of distilled water (˜2 cm^2) was applied to the back of mice once per day. In group B (n=30), […] of diethylaminoethyl acetylsalicylate citric acid (the HPC of aspirin) in 0.05 ml of water (10%) was applied to the back of mice (˜2 cm^2) once per day.

[11] = Fluorescence microscopy of HPC crossing rat skin, brain and other organs; type: in vivo; settings: 15 minutes after 30 mg in 0.5 ml ethanol on back of rats
Method: For fluorescence microscopy studies, 30 mg of 5-(dimethylamino)naphthalene-1-sulfonic acid or its HPC, N-2-diethylaminoethyl 5-dimethylamino-1-naphthalenesulfonamide.HCl salt was dissolved in 0.5 ml of 75% ethanol and applied to the shaved back of rats (3×3 cm). 15 minutes or 3 hours later, the rat was killed and organs were taken out and frozen. The frozen tissues (brain, liver, and muscle) were sliced and stained with Haematoxylin and eosin (H&E) staining. Results were shown picture 1-9 in FIG. 9.

[12] = Distribution in milk of sheep after transdermal HPC of ibuprofen; type: in vivo; settings: female, topical, 2 hr after 0.3 mmol/kg diethylaminoethyl 2-(ρ-isobutylphenyl)propionate.citric acid salt on back, read-out: amount found in the milk
Source text: as §1

[13] = 20 mg/kg, transdermally, t = 0 min.
[14] = 20 mg/kg, transdermally, t = 90 min.
[15] = 20 mg/kg, transdermally, t = 180 min.
[16] = 20 mg/kg, transdermally, t = 270 min.
[17] = 50 mg/kg, transdermally, t = 0 min.
[18] = 50 mg/kg, transdermally, t = 90 min.
[19] = 50 mg/kg, transdermally, t = 180 min.
[20] = 50 mg/kg, transdermally, t = 270 min.
[21] = 100 mg/kg, orally, t = 270 min.
[22] = 100 mg/kg, transdermally, t = 0 min.
[23] = 100 mg/kg, transdermally, t = 90 min.
[24] = 100 mg/kg, transdermally, t = 180 min.
[25] = 100 mg/kg, transdermally, t = 270 min.

SMILES: Br.CCN(CC)CCOC(=O)/C=C(C)/C=C/C=C(C)\C=C\C1=C(C)CCCC1(C)C [N,N-diethylaminoethyl 9-cis-retinoate.HBr]
solubility in water [1]: 30 mg/mL

distribution in brain [2]: 0.4 ± 0.2 nmol/g
distribution in cartilage pads [2]: 0.4 ± 0.2 nmol/g
distribution in heart [2]: 0.3 ± 0.1 nmol/g
distribution in prostate gland [2]: 0.5 ± 0.3 nmol/g
distribution in testis [2]: 0.5 ± 0.3 nmol/g
distribution in Myelin [2]: 0.60 ± 0.2 nmol/g
ibuprofen in Plasma (18 hr) ([3]; intramuscularly): 0.5 ± 0.2 nmol/mL
ibuprofen in Plasma (18 hr) ([3]; transdermally): 2.9 ± 2 nmol/mL
ibuprofen in synovial fluid ([4]; intramuscularly, 1 hour): 28.1 ± 8.1 nmol/g
ibuprofen in synovial fluid ([4]; intramuscularly, 8 hours): 22.1 ± 4.2 nmol/g
ibuprofen in synovial fluid ([4]; intramuscularly, 18 hours): 4.2 ± 1.1 nmol/g
ibuprofen in synovial fluid ([4]; transdermally, 1 hour): 11.6 ± 4.2 nmol/g
ibuprofen in synovial fluid ([4]; transdermally, 8 hours): 28.2 ± 4.7 nmol/g
ibuprofen in synovial fluid ([4]; transdermally, 18 hours): 11.2 ± 3.2 nmol/g
Amount of ibuprofen in cartilage tissue ([5]; intramuscularly): 17.2 ± 6.1 nmol/g
Amount of ibuprofen in cartilage tissue ([5]; transdermally): 22.5 ± 4.5 nmol/g
distribution in brain [7]: 0.1 ± 0.05 nmol/g
distribution in heart [7]: 0.5 ± 0.2 nmol/g
distribution in kidney [7]: 0.4 ± 0.2 nmol/g
distribution in liver [7]: 0.2 ± 0.2 nmol/g
distribution in pancreas [7]: 0.5 ± 0.3 nmol/g
distribution in stomach [7]: 0.3 ± 0.1 nmol/g
SMILES: CCN(CC)CCOC(=O)C(C)c1ccc(CC(C)C)cc1.Cl (stereo not drawn) [diethylaminoethyl 2-(ρ-isobutylphenyl)propionate.HCl]
body temperature ([6]; 20 mg/kg, orally, t = 0 min.): 37.6 ± 0.3
body temperature ([6]; 20 mg/kg, orally, t = 90 min.): 37.1 ± 0.3
body temperature ([6]; 20 mg/kg, orally, t = 180 min.): 36.9 ± 0.3
body temperature ([6]; 20 mg/kg, orally, t = 270 min.): 36.8 ± 0.2
body temperature [6, 13]: 37.6 ± 0.2
body temperature [6, 14]: 36.7 ± 0.4
body temperature [6, 15]: 36.6 ± 0.5
body temperature [6, 16]: 36.5 ± 0.3
body temperature ([6]; 50 mg/kg, orally, t = 0 min.): 37.6 ± 0.3
body temperature ([6]; 50 mg/kg, orally, t = 90 min.): 36.6 ± 0.3
body temperature ([6]; 50 mg/kg, orally, t = 180 min.): 36.5 ± 0.3
body temperature ([6]; 50 mg/kg, orally, t = 270 min.): 36.4 ± 0.2
body temperature [6, 17]: 37.5 ± 0.4
body temperature [6, 18]: 36.5 ± 0.3
body temperature [6, 19]: 36.4 ± 0.3
body temperature [6, 20]: 36.5 ± 0.2
body temperature ([6]; 100 mg/kg, orally, t = 0 min.): 37.5 ± 0.4
body temperature ([6]; 100 mg/kg, orally, t = 90 min.): 36.5 ± 0.3
body temperature ([6]; 100 mg/kg, orally, t = 180 min.): 36.4 ± 0.3
body temperature [6, 21]: 36.4 ± 0.2
body temperature [6, 22]: 37.5 ± 0.3
body temperature [6, 23]: 36.5 ± 0.2
body temperature [6, 24]: 36.4 ± 0.3
body temperature [6, 25]: 36.5 ± 0.2

SMILES: CCN(CC)CCOC(=O)c1ccccc1OC(C)=O.O=C(O)CC(O)(CC(=O)O)C(=O)O [diethylaminoethyl acetylsalicylate citric acid salt]
Blood pressure (week 0), Systolic [8]: 184.6 ± 15.1 mmHg
Blood pressure (week 0), diastolic [8]: 118.2 ± 13.1 mmHg
Blood pressure (week 2 to week 6), Systolic [8]: 115.4 ± 14.6 mmHg
Blood pressure (week 2 to week 6), diastolic [8]: 83.5 ± 12.1 mmHg
time until discoloured lesions disappeared and feathers regrew [9]: 3-6 weeks
Lifespan ([10]; 0.5 mg in 0.05 ml of water on back once per day, n=30): 38.2 ± 4.6 month
increase of the lifespan of mice ([10]; mouse, in vivo): 27%

SMILES: CCN(CC)CCNS(=O)(=O)c1cccc2c(N(C)C)cccc12.Cl [N-2-diethylaminoethyl 5-dimethylamino-1-naphthalenesulfonamide.HCl salt]
fluorescence chemical entering brain, muscle, and liver [11]: large amount of the fluorescence chemical had entered the brain, muscle, and liver

distribution in brain [2]: 5 ± 1 nmol/g
distribution in cartilage pads [2]: 8 ± 2 nmol/g
distribution in heart [2]: 10 ± 5 nmol/g
distribution in prostate gland [2]: 18 ± 7 nmol/g
distribution in testis [2]: 11 ± 4 nmol/g
distribution in Myelin [2]: 25 ± 8 nmol/g
concentration at 2 h [12]: 30 ± 8 µM
concentration at 1 h ([3]; male, rat, in vivo): 1430 ± 68 µM
concentration at 8 h ([3]; male, rat, in vivo): 313 ± 39 µM
ibuprofen in synovial fluid ([4]; intramuscularly, 1 hour): 3.2 ± 0.3 nmol/g
ibuprofen in synovial fluid ([4]; intramuscularly, 8 hours): 0.3 ± 0.1 nmol/g
SMILES: CC(C)Cc1ccc(C(C)C(=O)O)cc1 (stereo not drawn) [ibuprofen, 2-(ρ-isobutylphenyl)propionic acid, reference compound]
body temperature ([6]; 20 mg/kg, orally, t = 0 min.): 37.5 ± 0.2
body temperature ([6]; 20 mg/kg, orally, t = 90 min.): 37.6 ± 0.3
body temperature ([6]; 20 mg/kg, orally, t = 180 min.): 37.5 ± 0.3
body temperature ([6]; 20 mg/kg, orally, t = 270 min.): 37.4 ± 0.3
body temperature [6, 13]: 37.5 ± 0.3
body temperature [6, 14]: 37.5 ± 0.5
body temperature [6, 15]: 37.8 ± 0.4
body temperature [6, 16]: 37.9 ± 0.3
body temperature ([6]; 50 mg/kg, orally, t = 0 min.): 37.5 ± 0.3
body temperature ([6]; 50 mg/kg, orally, t = 90 min.): 37.6 ± 0.3
body temperature ([6]; 50 mg/kg, orally, t = 180 min.): 37.2 ± 0.3
body temperature ([6]; 50 mg/kg, orally, t = 270 min.): 37.1 ± 0.3
body temperature [6, 17]: 37.6 ± 0.3
body temperature [6, 18]: 37.8 ± 0.3
body temperature [6, 19]: 37.9 ± 0.3
body temperature [6, 20]: 38.1 ± 0.3
body temperature ([6]; 100 mg/kg, orally, t = 0 min.): 37.5 ± 0.3
body temperature ([6]; 100 mg/kg, orally, t = 90 min.): 37.4 ± 0.4
body temperature [6, 21]: 36.7 ± 0.3
body temperature [6, 22]: 37.6 ± 0.4
body temperature [6, 23]: 37.9 ± 0.4
body temperature [6, 24]: 37.8 ± 0.3
body temperature [6, 25]: 37.8 ± 0.2
antipyretic activity ([6]; transdermal administration): did not show any antipyretic activity
